Source: US20250230193A1, “CYCLIC COMPOUND HAVING SELECTIVE KRAS INHIBITORY EFFECT ON HRAS AND NRAS” (CHUGAI SEIYAKU KABUSHIKI KAISHA, priority 2022, published 2025)
Where a SMILES comes first, the peptide text is derived from it. Bridges are numbered along the chain shown (N, C = ends). [ ]: non-standard residue; d: D form. The star is where a group is joined. hPhe(3-Cl-4-CF3) = N[C@@H](CCc1ccc(C(F)(F)F)c(Cl)c1)C(=O)O; NPrPhe(4-CF3) = CCCN[C@@H](Cc1ccc(C(F)(F)F)cc1)C(=O)O; Pro(4-spirocPr) = O=C(O)[C@@H]1CC2(CC2)CN1; NMeGly(cPent) = CN[C@H](C(=O)O)C1CCCC1; Gly(cPent) = N[C@H](C(=O)O)C1CCCC1; Hyp = O=C(O)[C@@H]1C[C@@H](O)CN1; Gly(cBu) = N[C@H](C(=O)O)C1CCC1; NMeD = CN[C@@H](CC(=O)O)C(=O)O; NMeL = CN[C@@H](CC(C)C)C(=O)O; Morpholide = C1CN(*)CCO1; Ac5c = NC1(C(=O)O)CCCC1; Aze = O=C(O)[C@@H]1CCN1; Sar = CNCC(=O)O

Assays:
[1] = molecular target: GDP-bound HRAS wild-type protein (Homo sapiens, UniProt P01112); test: Binding to HRAS by surface plasmon resonance (SPR), Single Cycle Kinetics; details: KD ratio HRAS/KRAS, SPR
GDP-bound HRAS wild-type protein, sequence (P01112 whole entry): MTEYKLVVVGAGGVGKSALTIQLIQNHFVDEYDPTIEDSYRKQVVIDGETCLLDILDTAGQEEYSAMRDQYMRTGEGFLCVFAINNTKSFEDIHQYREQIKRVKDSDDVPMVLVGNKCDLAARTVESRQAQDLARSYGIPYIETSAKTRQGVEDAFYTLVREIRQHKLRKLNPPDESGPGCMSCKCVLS

[2] = molecular target: GDP-bound NRAS wild-type protein (Homo sapiens, UniProt P01111); test: Binding to NRAS by surface plasmon resonance (SPR), Single Cycle Kinetics; details: KD ratio NRAS/KRAS, SPR
GDP-bound NRAS wild-type protein, sequence (P01111 whole entry): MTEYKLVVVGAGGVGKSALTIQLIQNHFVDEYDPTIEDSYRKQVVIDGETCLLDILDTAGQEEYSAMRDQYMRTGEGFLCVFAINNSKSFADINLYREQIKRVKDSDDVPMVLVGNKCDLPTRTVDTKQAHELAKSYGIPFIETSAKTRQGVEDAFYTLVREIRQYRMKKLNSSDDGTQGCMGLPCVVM

Row | Structure (SMILES) | HRAS/KRAS (ratio of KD for GDP-bound HRAS wild-type to KD for KRAS) [1] | NRAS/KRAS (ratio of KD for GDP-bound NRAS wild-type to KD for KRAS) [2]
1 | CCCN1C(=O)CN(C)C(=O)[C@@H]2CCN2C(=O)[C@H](C2CCC2)NC(=O)[C@H](CC(C)C)N(C)C(=O)C[C@@H](C(=O)N2CCOCC2)N(C)C(=O)[C@H](C2CCCC2)N(C)C(=O)C2(CCCC2)NC(=O)[C@@H]2CCCN2C(=O)[C@H](CCc2ccc(C(F)(F)F)c(Cl)c2)NC(=O)CN(C)C(=O)[C@@H]1Cc1ccc(C(F)(F)F)cc1 [PP0305] ([NMeL][Gly(cBu)][Aze][Sar][NPrPhe(4-CF3)][Sar][hPhe(3-Cl-4-CF3)]P[Ac5c][NMeGly(cPent)][NMeD]-Morpholide; lactam N-11) | C (A compound having a KD ratio of 0.1 or more and less than 3 is denoted as C) | B (a compound having 3 or more and less than 10 is denoted as B)
2 | CCCN1C(=O)CN(C)C(=O)[C@@H]2CCN2C(=O)[C@H](C2CCCC2)NC(=O)[C@H](CC(C)C)N(C)C(=O)C[C@@H](C(=O)N2CCOCC2)N(C)C(=O)[C@H](C2CCCC2)N(C)C(=O)C2(CCCC2)NC(=O)[C@@H]2CCCN2C(=O)[C@H](CCc2ccc(C(F)(F)F)c(Cl)c2)NC(=O)CN(C)C(=O)[C@@H]1Cc1ccc(C(F)(F)F)cc1 [PP0306] ([NMeL][Gly(cPent)][Aze][Sar][NPrPhe(4-CF3)][Sar][hPhe(3-Cl-4-CF3)]P[Ac5c][NMeGly(cPent)][NMeD]-Morpholide; lactam N-11) | B (a compound having 3 or more and less than 10 is denoted as B) | B (a compound having 3 or more and less than 10 is denoted as B)
3 | CCCN1C(=O)CN(C)C(=O)[C@@H]2CCN2C(=O)[C@H]([C@@H](C)CC)NC(=O)[C@H](CC(C)C)N(C)C(=O)C[C@@H](C(=O)N2CCOCC2)N(C)C(=O)[C@H](C2CCCC2)N(C)C(=O)C2(CCCC2)NC(=O)[C@@H]2CCN2C(=O)[C@H](CCc2ccc(C(F)(F)F)c(Cl)c2)NC(=O)CN(C)C(=O)[C@@H]1Cc1ccc(C(F)(F)F)cc1 [PP0307] ([NMeL]I[Aze][Sar][NPrPhe(4-CF3)][Sar][hPhe(3-Cl-4-CF3)][Aze][Ac5c][NMeGly(cPent)][NMeD]-Morpholide; lactam N-11) | B (a compound having 3 or more and less than 10 is denoted as B) | B (a compound having 3 or more and less than 10 is denoted as B)
4 | CCCN1C(=O)CN(C)C(=O)[C@@H]2CCN2C(=O)[C@H]([C@@H](C)CC)NC(=O)[C@H](CC(C)C)N(C)C(=O)C[C@@H](C(=O)N2CCOCC2)N(C)C(=O)[C@H](C2CCCC2)N(C)C(=O)C2(CCCC2)NC(=O)[C@@H]2CC3(CC3)CN2C(=O)[C@H](CCc2ccc(C(F)(F)F)c(Cl)c2)NC(=O)CN(C)C(=O)[C@@H]1Cc1ccc(C(F)(F)F)cc1 [PP0308] ([NMeL]I[Aze][Sar][NPrPhe(4-CF3)][Sar][hPhe(3-Cl-4-CF3)][Pro(4-spirocPr)][Ac5c][NMeGly(cPent)][NMeD]-Morpholide; lactam N-11) | B (a compound having 3 or more and less than 10 is denoted as B) | B (a compound having 3 or more and less than 10 is denoted as B)
5 | CCCN1C(=O)CN(C)C(=O)[C@@H]2CCN2C(=O)[C@H]([C@@H](C)CC)NC(=O)[C@H](CC(C)C)N(C)C(=O)C[C@@H](C(=O)N2CCOCC2)N(C)C(=O)[C@H](C2CCCC2)N(C)C(=O)C2(CCCC2)NC(=O)[C@@H]2C[C@@H](OC)CN2C(=O)[C@H](CCc2ccc(C(F)(F)F)c(Cl)c2)NC(=O)CN(C)C(=O)[C@@H]1Cc1ccc(C(F)(F)F)cc1 [PP0309] ([NMeL]I[Aze][Sar][NPrPhe(4-CF3)][Sar][hPhe(3-Cl-4-CF3)][Hyp](Me)[Ac5c][NMeGly(cPent)][NMeD]-Morpholide; lactam N-11) | B (a compound having 3 or more and less than 10 is denoted as B) | B (a compound having 3 or more and less than 10 is denoted as B)
